Experimental data reported in the CheMixHub ionic liquid set.
± gives the uncertainty stated by the source.

Experiment: xn = mol fraction of the nth substance listed

Structure (SMILES): CC(=O)[O-].CC[n+]1ccn(C)c1 + CCS(=O)(=O)[O-].[NH4+]
- electrical conductivity (303.15 K, 101 kPa, x2 = 0): 0.374 ± 0.0075 S/m
- viscosity (303.15 K, 101 kPa, x2 = 0): 93.6 ± 6.1 mPa·s
- electrical conductivity (318.15 K, 101 kPa, x2 = 0): 0.76 ± 0.015 S/m
- viscosity (318.15 K, 101 kPa, x2 = 0): 44.2 ± 2.9 mPa·s

Structure (SMILES): CCCO + CC[n+]1ccccc1.N#C[N-]C#N
- viscosity (288.15 K, 100 kPa, x1 = 1): 2.51 ± 0.25 mPa·s

Structure (SMILES): CCCO + CC[n+]1ccn(C)c1.COS(=O)(=O)[O-]
- viscosity (283.15 K, 101 kPa, x2 = 0): 2.78 ± 0.07 mPa·s
- viscosity (293.15 K, 101 kPa, x2 = 0): 2.18 ± 0.07 mPa·s
- viscosity (313.15 K, 101 kPa, x2 = 0): 1.36 ± 0.07 mPa·s
- viscosity (323.15 K, 101 kPa, x2 = 0): 1.11 ± 0.07 mPa·s

Structure (SMILES): CCCC[N+](C)(CCCC)CCCC.N#C[N-]C#N + CC[n+]1ccn(C)c1.N#C[N-]C#N
- viscosity (303.15 K, 101 kPa, x2 = 0.2114): 109.5 ± 5.2 mPa·s
- viscosity (303.15 K, 101 kPa, x2 = 0.6047): 33 ± 1.4 mPa·s
- viscosity (333.15 K, 101 kPa, x2 = 0.3975): 19.3 ± 0.8 mPa·s
- viscosity (343.15 K, 101 kPa, x2 = 0.2114): 20.6 ± 0.85 mPa·s
- viscosity (353.15 K, 101 kPa, x2 = 0.2114): 15.38 ± 0.63 mPa·s
- viscosity (353.15 K, 101 kPa, x2 = 0.3975): 11.19 ± 0.46 mPa·s

Structure (SMILES): OCC(F)(F)F + CC[n+]1ccn(C)c1.N#C[N-]C#N
- viscosity (298.15 K, 100 kPa, x2 = 0): 1.77 ± 0.6 mPa·s
- viscosity (308.15 K, 100 kPa, x2 = 0): 1.38 ± 0.6 mPa·s

Structure (SMILES): CCCCn1cc[n+](CCOCCOCC[n+]2ccn(CCCC)c2)c1.O=S(=O)([N-]S(=O)(=O)C(F)(F)F)C(F)(F)F.O=S(=O)([N-]S(=O)(=O)C(F)(F)F)C(F)(F)F + CC[n+]1ccn(C)c1.N#C[N-]C#N + O=S(=O)([N-]S(=O)(=O)C(F)(F)F)C(F)(F)F.[Li+]
- electrical conductivity (298 K, 100 kPa, x1 = 0.1442, x2 = 0.7526): 0.677 ± 0.027 S/m
- electrical conductivity (303 K, 100 kPa, x1 = 0.1442, x2 = 0.7526): 0.795 ± 0.032 S/m
- electrical conductivity (313 K, 100 kPa, x1 = 0.1442, x2 = 0.7526): 1.05 ± 0.042 S/m
- electrical conductivity (323 K, 100 kPa, x1 = 0.1442, x2 = 0.7526): 1.39 ± 0.056 S/m
- electrical conductivity (333 K, 100 kPa, x1 = 0.1442, x2 = 0.7526): 1.71 ± 0.069 S/m
- electrical conductivity (343 K, 100 kPa, x1 = 0.1442, x2 = 0.7526): 2.08 ± 0.083 S/m

Structure (SMILES): CC[S+](CC)CCOCC[S+](CC)CC.O=S(=O)([N-]S(=O)(=O)C(F)(F)F)C(F)(F)F.O=S(=O)([N-]S(=O)(=O)C(F)(F)F)C(F)(F)F + CC[n+]1ccn(C)c1.N#C[N-]C#N + O=S(=O)([N-]S(=O)(=O)C(F)(F)F)C(F)(F)F.[Li+]
- electrical conductivity (298 K, 100 kPa, x1 = 0.1609, x2 = 0.7379): 0.637 ± 0.025 S/m
- electrical conductivity (303 K, 100 kPa, x1 = 0.1609, x2 = 0.7379): 0.742 ± 0.03 S/m
- electrical conductivity (313 K, 100 kPa, x1 = 0.1609, x2 = 0.7379): 0.987 ± 0.039 S/m
- electrical conductivity (323 K, 100 kPa, x1 = 0.1609, x2 = 0.7379): 1.28 ± 0.051 S/m
- electrical conductivity (333 K, 100 kPa, x1 = 0.1609, x2 = 0.7379): 1.64 ± 0.066 S/m
- electrical conductivity (343 K, 100 kPa, x1 = 0.1609, x2 = 0.7379): 2 ± 0.08 S/m

Structure (SMILES): C[N+]1(CCOCCOCCOCC[N+]2(C)CCCC2)CCCC1.N#C[N-]C#N.N#C[N-]C#N + CC[n+]1ccn(C)c1.N#C[N-]C#N + O=S(=O)([N-]S(=O)(=O)C(F)(F)F)C(F)(F)F.[Li+]
- electrical conductivity (298 K, 100 kPa, x1 = 0.252, x2 = 0.6578): 0.522 ± 0.021 S/m
- electrical conductivity (303 K, 100 kPa, x1 = 0.252, x2 = 0.6578): 0.63 ± 0.025 S/m
- electrical conductivity (313 K, 100 kPa, x1 = 0.252, x2 = 0.6578): 0.854 ± 0.034 S/m
- electrical conductivity (323 K, 100 kPa, x1 = 0.252, x2 = 0.6578): 1.16 ± 0.046 S/m
- electrical conductivity (333 K, 100 kPa, x1 = 0.252, x2 = 0.6578): 1.48 ± 0.059 S/m
- electrical conductivity (343 K, 100 kPa, x1 = 0.252, x2 = 0.6578): 1.86 ± 0.074 S/m

Structure (SMILES): CCCO + CC[n+]1ccn(C)c1.N#C[S-]
- viscosity (283.15 K, 101 kPa, x2 = 0): 2.78 ± 0.07 mPa·s
- viscosity (293.15 K, 101 kPa, x2 = 0): 2.18 ± 0.07 mPa·s
- viscosity (303.15 K, 101 kPa, x2 = 0): 1.72 ± 0.07 mPa·s
- viscosity (313.15 K, 101 kPa, x2 = 0): 1.36 ± 0.07 mPa·s
- viscosity (323.15 K, 101 kPa, x2 = 0): 1.11 ± 0.07 mPa·s

Structure (SMILES): CC[n+]1ccn(C)c1.CS(=O)(=O)[O-] + CC[n+]1ccn(C)c1.N#C[S-] + O
- viscosity (298.15 K, 100 kPa, x2 = 0, x1 = 1): 166.9 ± 4.2 mPa·s
- viscosity (298.15 K, 100 kPa, x2 = 0.03875, x1 = 0.1179): 5.47 ± 0.11 mPa·s
- viscosity (298.15 K, 100 kPa, x2 = 0.0437, x1 = 0.133): 6.29 ± 0.13 mPa·s
- viscosity (298.15 K, 100 kPa, x2 = 0.04778, x1 = 0.1454): 6.96 ± 0.14 mPa·s
- viscosity (298.15 K, 100 kPa, x2 = 0.04973, x1 = 0.05117): 2.902 ± 0.06 mPa·s
- viscosity (298.15 K, 100 kPa, x2 = 0.07374, x1 = 0.07586): 4.308 ± 0.088 mPa·s
- viscosity (298.15 K, 100 kPa, x2 = 0.08472, x1 = 0.2579): 14.08 ± 0.29 mPa·s
- viscosity (298.15 K, 100 kPa, x2 = 0.09552, x1 = 0.09828): 5.65 ± 0.12 mPa·s
- viscosity (298.15 K, 100 kPa, x2 = 0.132, x1 = 0.4018): 27.86 ± 0.57 mPa·s
- viscosity (298.15 K, 100 kPa, x2 = 0.1688, x1 = 0.1737): 10.72 ± 0.22 mPa·s
- viscosity (298.15 K, 100 kPa, x2 = 0.1857, x1 = 0.5652): 56.4 ± 1.1 mPa·s
- viscosity (298.15 K, 100 kPa, x2 = 0.1882, x1 = 0.06242): 5.9 ± 0.12 mPa·s
- viscosity (298.15 K, 100 kPa, x2 = 0.2473, x1 = 0.7527): 102.6 ± 2.3 mPa·s
- viscosity (298.15 K, 100 kPa, x2 = 0.2641, x1 = 0.2717): 19.62 ± 0.4 mPa·s
- viscosity (298.15 K, 100 kPa, x2 = 0.3704, x1 = 0.3811): 35.52 ± 0.72 mPa·s
- viscosity (298.15 K, 100 kPa, x2 = 0.3722, x1 = 0.1235): 12.81 ± 0.26 mPa·s
- viscosity (298.15 K, 100 kPa, x2 = 0.4929, x1 = 0.5071): 63.5 ± 1.3 mPa·s
- viscosity (298.15 K, 100 kPa, x2 = 0.5588, x1 = 0.1854): 23.25 ± 0.47 mPa·s
- viscosity (298.15 K, 100 kPa, x2 = 0.7509, x1 = 0.2491): 38.43 ± 0.78 mPa·s
- viscosity (323.15 K, 100 kPa, x2 = 0, x1 = 1): 46.66 ± 0.95 mPa·s
- viscosity (323.15 K, 100 kPa, x2 = 0.03875, x1 = 0.1179): 2.895 ± 0.06 mPa·s
- viscosity (323.15 K, 100 kPa, x2 = 0.0437, x1 = 0.133): 3.29 ± 0.07 mPa·s
- viscosity (323.15 K, 100 kPa, x2 = 0.04778, x1 = 0.1454): 3.598 ± 0.074 mPa·s
- viscosity (323.15 K, 100 kPa, x2 = 0.04973, x1 = 0.05117): 1.645 ± 0.034 mPa·s
- viscosity (323.15 K, 100 kPa, x2 = 0.07374, x1 = 0.07586): 2.366 ± 0.049 mPa·s
- viscosity (323.15 K, 100 kPa, x2 = 0.08472, x1 = 0.2579): 6.86 ± 0.14 mPa·s
- viscosity (323.15 K, 100 kPa, x2 = 0.09552, x1 = 0.09828): 3.039 ± 0.062 mPa·s
- viscosity (323.15 K, 100 kPa, x2 = 0.132, x1 = 0.4018): 12.33 ± 0.25 mPa·s
- viscosity (323.15 K, 100 kPa, x2 = 0.1688, x1 = 0.1737): 5.46 ± 0.11 mPa·s
- viscosity (323.15 K, 100 kPa, x2 = 0.1857, x1 = 0.5652): 21.34 ± 0.43 mPa·s
- viscosity (323.15 K, 100 kPa, x2 = 0.1882, x1 = 0.06242): 3.31 ± 0.07 mPa·s
- viscosity (323.15 K, 100 kPa, x2 = 0.2473, x1 = 0.7527): 32.99 ± 0.67 mPa·s
- viscosity (323.15 K, 100 kPa, x2 = 0.2641, x1 = 0.2717): 9.31 ± 0.19 mPa·s
- viscosity (323.15 K, 100 kPa, x2 = 0.3704, x1 = 0.3811): 15.09 ± 0.31 mPa·s
- viscosity (323.15 K, 100 kPa, x2 = 0.3722, x1 = 0.1235): 6.61 ± 0.13 mPa·s
- viscosity (323.15 K, 100 kPa, x2 = 0.4929, x1 = 0.5071): 23.49 ± 0.48 mPa·s
- viscosity (323.15 K, 100 kPa, x2 = 0.5588, x1 = 0.1854): 10.99 ± 0.22 mPa·s
- viscosity (323.15 K, 100 kPa, x2 = 0.7509, x1 = 0.2491): 16.41 ± 0.33 mPa·s
